Laboratory results reported in US9856279B2 (AGIOS PHARMACEUTICALS, INC, priority 2011, dated 2018).

Target: IDH1 R132H (Homo sapiens, UniProt O75874, R132H)
Test: Assay for IDH1 R132H inhibitors (NADPH/aKG, resazurin detection)
Assay type: biochemical
Conditions: Table 3; enzyme assay, 50 minutes at room temperature; read-out: IC50 (IDH1 R132H Inhibition)
Procedure, shortened: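 Compound added to substrate mix (8 uM NADPH, 2 mM aKG), then enzyme mix (0.2 μg/ml IDH1 R132H); 50 min RT in 20 mM Tris pH 7.5, 150 mM NaCl, 10 mM MgCl2, 0.03% BSA. Resazurin detection mix (30 μM) 5 min RT; resorufin fluorescence Ex544/Em590.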

Sequence of IDH1 R132H (O75874 whole entry R132H): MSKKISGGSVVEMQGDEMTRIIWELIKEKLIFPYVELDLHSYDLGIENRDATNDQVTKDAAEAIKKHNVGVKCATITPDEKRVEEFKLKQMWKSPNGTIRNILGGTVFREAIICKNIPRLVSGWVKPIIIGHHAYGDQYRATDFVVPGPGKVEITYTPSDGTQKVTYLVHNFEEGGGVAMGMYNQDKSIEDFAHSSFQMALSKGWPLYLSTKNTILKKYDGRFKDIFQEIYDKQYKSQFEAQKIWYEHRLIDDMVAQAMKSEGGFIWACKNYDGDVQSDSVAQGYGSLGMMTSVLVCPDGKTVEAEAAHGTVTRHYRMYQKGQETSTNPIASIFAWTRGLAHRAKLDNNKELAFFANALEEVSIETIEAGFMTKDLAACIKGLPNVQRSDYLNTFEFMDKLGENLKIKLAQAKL

SMILES | IC50 [nM]
COc1ccccc1-c1cc(C(C)C)nc(N2CCN(C(=O)c3ccoc3)[C@H](C)C2)c1C#N [Compound 148, (R)-2-(4-(furan-3-carbonyl)-3-methylpiperazin-1-yl)-6-isopropyl-4-(2-methoxyphenyl)nicotinonitrile] | 1000 to 5000
CCc1ccc(-c2cc(C#N)c(N3CCN(C(=O)CCOC)[C@H](C)C3)nc2C(C)C)cc1 [Compound 216, 5-(4-ethylphenyl)-6-isopropyl-2-(4-(3-methoxypropanoyl)-3-methylpiperazin-1-yl)nicotinonitrile] | 1000 to 5000
CC(C)c1nc(N2CCN(C(=O)c3ccoc3)[C@H](C)C2)c(C#N)cc1-c1ccccc1 [Compound 150, (R)-2-(4-(furan-3-carbonyl)-3-methylpiperazin-1-yl)-6-isopropyl-5-phenylnicotinonitrile] | 1000 to 5000
COCCC(=O)N1CCN(c2nc(C(C)C)c(-c3ccc(OC(F)(F)F)cc3)cc2C#N)C[C@H]1C [Compound 232, (R)-6-isopropyl-2-(4-(3-methoxypropanoyl)-3-methylpiperazin-1-yl)-5-(4-(trifluoromethoxy)phenyl)nicotinonitrile] | 1000 to 5000
CC[C@@H]1CN(c2nc(C(C)C)c(-c3ccccc3)cc2C#N)CCN1C(=O)c1ccco1 [Compound 172, (R)-2-(3-ethyl-4-(furan-2-carbonyl)piperazin-1-yl)-6-isopropyl-5-phenylnicotinonitrile] | 5000 to 15000
COCCC(=O)N1CCN(c2nc(C(C)C)c(-c3ccncc3)cc2C#N)C[C@H]1C [Compound 213, (R)-2-isopropyl-6-(4-(3-methoxypropanoyl)-3-methylpiperazin-1-yl)-3,4′-bipyridine-5-carbonitrile] | 1000 to 5000

Same assay, conditions: enzyme assay of Example 12; read-out: IDH1R132H IC50

SMILES | IC50 [nM]
N#Cc1cc(-c2cc(C#N)c(N3CCN(C(=O)C4CC4)[C@H](C4CC4)C3)nc2C2CC2)cnn1 [Compound 641, (R)-5-(5-cyano-6-(4-(cyclopropanecarbonyl)-3-cyclopropylpiperazin-1-yl)-2-cyclopropylpyridin-3-yl)pyridazine-3-carbonitrile] | < 500
COC(=O)CCC(=O)N1CCN(c2nc(C3CC3)c(-c3ccnc(Cl)c3)cc2C#N)C[C@H]1C1CC1 [Compound 739, (R)-methyl 4-(4-(2′-chloro-5-cyano-2-cyclopropyl-3,4′-bipyridin-6-yl)-2-cyclopropylpiperazin-1-yl)-4-oxobutanoate] | < 500
COCCC(=O)N1CCN(c2nc(C3CC3)c(-c3ccc(F)c4ccccc34)cc2C#N)C[C@H]1C [Compound 290, (R)-6-cyclopropyl-5-(4-fluoronaphthalen-1-yl)-2-(4-(3-methoxypropanoyl)-3-methylpiperazin-1-yl)nicotinonitrile] | < 500
COCCC(=O)N1CCN(c2nc(C3CC3)c(-c3cc(Cl)nc(Cl)c3)cc2C#N)C[C@H]1C [Compound 586, (R)-2′,6′-dichloro-2-cyclopropyl-6-(4-(3-methoxypropanoyl)-3-methylpiperazin-1-yl)-[3,4′-bipyridine]-5-carbonitrile] | < 500
C=Cc1cc(-c2c(C3CC3)nc(N3CCN(C(=O)OC(C)(C)C)[C@H](C4CC4)C3)c(C#N)c2C)cnn1 [Compound 772, (R)-tert-butyl 4-(3-cyano-6-cyclopropyl-4-methyl-5-(6-vinylpyridazin-4-yl)pyridin-2-yl)-2-cyclopropylpiperazine-1-carboxylate] | 500 to 1000
COCCC(=O)N1CCN(c2nc(C3CC3)c(-c3ccc4cn[nH]c4c3)cc2C#N)C[C@H]1C [Compound 385, (R)-6-cyclopropyl-5-(1H-indazol-6-yl)-2-(4-(3-methoxypropanoyl)-3-methylpiperazin-1-yl)nicotinonitrile] | 500 to 1000
COCCC(=O)N1CCN(c2nc(C3CC3)c(-c3cc4ccccc4[nH]3)cc2C#N)C[C@H]1C [Compound 394, (R)-6-cyclopropyl-5-(1H-indol-2-yl)-2-[4-(3-methoxy-propionyl)-3-methyl-piperazin-1-yl]-nicotinonitrile] | 500 to 1000
